# Assay results from patent US20050169978A1, “Wet-micro grinding” (priority 2004, published 2005).
# Experiment: AmB content by high performance liquid chromatography during grinding
# Type: physicochemical
# Conditions: ball mill, 210 min overall grinding, HPLC
# Experimental: Samples were taken at a grinding time of 90 minutes, 150 minutes, and 210 minutes, and were designated as LDAB90, LDAB150, and LDAB210, respectively. All samples were stored at 2-8° C. before analyzed. The particle size ranges of the samples were measured using N4 Plus Particle Size Analyzer and the AmB content was measured using high performance liquid chromatography.
smiles,measurement,value
"C[C@@H]1[C@H](O)[C@@H](C)/C=C/C=C/C=C/C=C/C=C/C=C/C=C/[C@H](O[C@@H]2O[C@H](C)[C@@H](O)[C@H](N)[C@@H]2O)C[C@@H]2O[C@](O)(C[C@@H](O)C[C@@H](O)[C@H](O)CC[C@@H](O)C[C@@H](O)CC(=O)O[C@H]1C)C[C@H](O)[C@H]2C(=O)O [AmB, amphotericin B]",stability of AmB (AmB content) during grinding,remained stable during the whole period of the grinding process
